From patent US20240327488A1, “CONNEXIN-46 PEPTIDE MODULATOR” (UNIVERSIDAD DEL DESARROLLO, priority 2023, published 2024)

How the values were obtained:
Format in all cases: cell-based, human
HeLa Cx46-GFP cells = experiment: Tumor sphere formation on non-adherent surface
Description: (B) Tumor spheres growing is a technique used to determine the cancer stem cells capacity. Hela cells transfected with GFP for a monolayer of cells when they a seeded in a non-adherent surface, and moreover they died after 14 days in culture. However, Hela cells transfected with Cx46GFP do form tumor spheres which survive at last for 14 days. […] (D) graphical comparison between the size of tumor spheres at day 14 under control conditions (outer line) and treated with the peptide (inner line). Plot show the quantification of the tumor sphere size between time 0 and day 14, both under control condition (upper line) and with the peptide (lower line).
Mimetic peptides of the Cx46 domains that would interact with c-Src, Akt or PI3k were designed, synthesized and evaluated for their ability to inhibit the formation of tumor spheres in vitro in Hela cells overexpressing or not Cx46. Briefly, the experiments were done with the following protocols.
Cell line cultures: The HeLa cell line was grown in Dulbecco's Modified Eagle Medium (DMEM) supplemented with 10% fetal bovine serum (FBS) and 1% penicillin 10,000 U/mL, streptomycin sulfate […] (P/S) at 37° C., 5% CO2 and 95% humidity. Every 2 weeks the presence of mycoplasma was analyzed, by means of staining with DAPI. Infected cells were treated with BioMyc-1 (100×) for two weeks.
Cell Transfection: Cells were transfected using Lipofectamine 2000 (Invitrogen). For this HeLa cell cultures were grown to reach 60% confluence. Cells are washed with serum-free DMEM twice and finally exposed to OptiMem™ (Invitrogen) plus 1 μg cDNA. The cDNA for GFP-linked human Cx46 was purchased from Promega. The plasmid also has a resistance to G418, which is an antibiotic that serves for the selection of cells that stably express Cx46-GFP. Cx46 expression was monitored by Western blot and immunofluorescence analysis.
However, Hela cells transfected with Cx46-GFP form large tumor spheres that remain alive for at least 14 days (FIG. 2B; Annex 1). […]

[1] = tested on: Akt phosphorylation in S473; experiment: Western blot of Akt phosphorylation at S473
Experimental: (A) Representative Western blot showing, the levels of phosphorylation at S473 (pAKT), total AKT (AKT) and loading control (actin). Different concentrations of TAT-Cx46-Src were tested, ranging between […]. (B) Plot showing the relative levels of pAKT with respect to total AKT at different concentrations of TAT-Cx46-Src. (n=3).
Western blots: Cells were washed three times with phosphate buffered saline
(PBS) pH: 7.4 and then lysed with RIPA buffer (150 mM NaCl, 20 mM Tris pH: 7.4; 0.5% Sodium Desoxycholate, 0.1% Sodium Dodecyl Sulfate (SDS), 1% Nonidet P-40 and a protease inhibitor cocktail tablet). Proteins were quantified using the Qubit™ protein Assay Kit in a Qubit™ Fluorometer following the manufacturer's instructions (ThermoFisher). Subsequently, Laemli buffer (4×) (62.5 mM Tris pH 6.8; 25% glycerol, 2% SDS, 0.01% bromophenol blue and 5% β-mercaptoethanol) was added to the cell lysate and was heated at 95° C. for 3 min, in a thermoblock. About 50 μg of proteins were loaded into each well of a 10% polyacrylamide gel under denaturing conditions (SDS-PAGE). Then the proteins were transferred to a polyvinylidene difluoride (PVDF) membrane by wet transfer for 2 h at 100 V in Tris-Glycine 20% methanol buffer. The membranes were blocked with 5% skimmed milk in Buffer Tris and 0.05% Tween 20 (T-TBS) for 1 h at room temperature under shaking. […]

[2] = tested on: Tumor spheres formed by Hela cells transfected with Cx46GFP; experiment: Cell viability of tumor spheres (7-AAD uptake)
Experimental: Tumor spheres formed by Hela cells transfected with Cx46GFP were grown for 14 days. […] TAT-Cx46-Src was added every 3 days (every time that culture media was replaced). At day 14th, 10 mM 7-AAD was added to the extracellular media.

## TAT-Cx46-Src: Mimetic peptide of the Cx46 404-410 C-terminal segment (MHQPPLP) fused with the cell-penetrating TAT peptide; blocks the Cx46/c-Src interaction (GRKKRRQRRRPQMHQPPLP)
HeLa Cx46-GFP cells; 100 μM, 10 days of treatment, HeLa Cx46-GFP cells
  decrease of the size of tumor spheres: about 43%
HeLa Cx46-GFP cells; 100 mM added to the extracellular media every 3 days, Hela Cx46GFP, up to day 14 (FIG. 2C)
  tumor sphere size: reduced tumor sphere size
HeLa Cx46-GFP cells; Hela cells (FIGS. 2C and D)
  inhibition of the cancer stem cells (CSC) functional phenotype: strong inhibition
[1]; 100 μM, 24-h treatment, HeLa Cx46-GFP cells
  Akt phosphorylation levels in S473: strongly decreased
[1]; concentrations ranging between 0-100 mM, n=3 (FIG. 3)
  Akt phosphorylation in S473 (pAKT relative to total AKT): decreased Akt phosphorylation
[2]; day 14, 10 mM 7-AAD in extracellular media, 100 mM peptide every 3 days, n=3
  uptake of 7-AAD dye: shown uptake of this Dye
[2]; treatment with 100 μM, HeLa Cx46-GFP tumor spheres
  death of cells in tumor spheres (cell viability studies): promotes the death of cells in the center of tumor spheres
[2]; tumor spheres grown 14 days, 100 mM added every 3 days, n=3 (FIG. 4)
  cell death of Hela cells Cx46GFP: increase cell death
